# Measurements published in ChEMBL document CHEMBL1201862, “PubChem BioAssay data set” (2004).
# Activity calls are given as the source filed them.
# Tests used:
# [1] = target: 5-hydroxytryptamine receptor 2A (Mus musculus, UniProt P35363); type: functional, cell-based;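 further: CHO-K1 cells with tagged receptor and beta-arrestin; agonist potency measured as compound-induced activation of the receptor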
# [2] = target: Mu-type opioid receptor (Homo sapiens, UniProt P35372); type: functional, cell-based;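 further: U2OS cells with beta-arrestin recruitment to OPRM1 by beta-gal complementation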
# [3] = target: ADP-ribosylation factor GTPase-activating protein 1 (Rattus norvegicus, UniProt Q62848); assay: Fluorescence polarization-based biochemical high throughput dose response screening assay to identify inhibitors of ADP-ribosylation factor GTPase activating protein 1 (ARFGAP1).; type: functional
# [4] = target: Arf-GAP with SH3 domain, ANK repeat and PH domain-containing protein 1 (Homo sapiens, UniProt Q9ULH1); type: functional;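 further: biochemical fluorescence polarization dose–response screen measuring inhibition of ASAP1; ASAP1 GAP domain stimulating GTP hydrolysis by truncated human ARF1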
# [5] = target: Botulinum neurotoxin type F (Clostridium botulinum, UniProt P30996); assay: High-throughput multiplex microsphere dose response for inhibitors of toxin protease, specifically Botulinum neurotoxin light chain F protease, compounds from Cherry Pick 02.; type: functional; conditions: read-out: EC50_MICROM
# [6] = target: T1, Protein skinhead-1 (Caenorhabditis elegans, UniProt P34707); type: functional
# T1 sequence (P34707 whole entry): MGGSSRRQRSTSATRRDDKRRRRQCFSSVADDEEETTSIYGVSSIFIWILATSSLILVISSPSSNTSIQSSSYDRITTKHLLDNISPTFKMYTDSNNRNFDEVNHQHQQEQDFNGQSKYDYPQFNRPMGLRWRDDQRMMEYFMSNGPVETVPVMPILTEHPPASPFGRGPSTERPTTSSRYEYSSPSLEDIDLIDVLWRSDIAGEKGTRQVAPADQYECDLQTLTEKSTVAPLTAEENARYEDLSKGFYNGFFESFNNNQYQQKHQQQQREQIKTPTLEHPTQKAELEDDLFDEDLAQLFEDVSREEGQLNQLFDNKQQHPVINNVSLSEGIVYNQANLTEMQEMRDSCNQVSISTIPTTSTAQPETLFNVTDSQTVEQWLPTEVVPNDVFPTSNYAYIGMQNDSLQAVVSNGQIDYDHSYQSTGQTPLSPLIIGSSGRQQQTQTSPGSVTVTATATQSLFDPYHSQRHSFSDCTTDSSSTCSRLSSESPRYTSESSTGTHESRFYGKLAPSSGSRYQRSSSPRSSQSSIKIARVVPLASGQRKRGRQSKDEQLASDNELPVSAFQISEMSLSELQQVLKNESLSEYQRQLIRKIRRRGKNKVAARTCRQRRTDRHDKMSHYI
# [7] = target: T2, Heat shock factor protein 1 (Mus musculus, UniProt P38532); assay: decrease of HSF1-responsive luciferase luminescence – cell-based, NIH3T3, dose retest, confirmation (AID 2382); type: functional;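 further: NIH3T3 fibroblasts with HSF1-driven luciferase reporter stressed by proteasome inhibitor MG132; luminescence from HSF1-driven luciferase expression after 8 hours of MG132 stress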
# T2 sequence (P38532 whole entry): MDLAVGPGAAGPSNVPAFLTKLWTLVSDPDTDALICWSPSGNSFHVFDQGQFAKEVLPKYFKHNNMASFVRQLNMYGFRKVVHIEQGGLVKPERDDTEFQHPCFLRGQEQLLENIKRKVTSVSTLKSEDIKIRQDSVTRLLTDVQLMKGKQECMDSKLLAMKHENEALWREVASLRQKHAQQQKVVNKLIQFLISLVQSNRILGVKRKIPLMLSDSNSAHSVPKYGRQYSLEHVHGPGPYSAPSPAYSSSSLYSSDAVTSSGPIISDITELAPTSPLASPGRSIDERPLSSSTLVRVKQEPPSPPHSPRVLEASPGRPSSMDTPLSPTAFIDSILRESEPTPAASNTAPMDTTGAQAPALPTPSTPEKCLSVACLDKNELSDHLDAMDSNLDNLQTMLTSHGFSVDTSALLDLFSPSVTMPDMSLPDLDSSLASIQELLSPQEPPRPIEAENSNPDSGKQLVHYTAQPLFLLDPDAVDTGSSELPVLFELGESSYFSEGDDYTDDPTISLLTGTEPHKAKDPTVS
# [8] = target: Lethal factor (Bacillus anthracis, UniProt P15917); assay: High-throughput multiplex microsphere dose response for inhibitors of toxin protease, specifically Lethal Factor protease, compounds from Cherry Pick 02.; type: functional; conditions: read-out: EC50_MICROM
# [9] = cells; type: functional
# [10] = target: Beta-lactamase (Salmonella choleraesuis (strain SC-B67), UniProt Q5J463)
# [11] = target: Beta-lactamase (Pseudomonas aeruginosa, UniProt Q79MP6);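 further: biochemical dose-response test of metallo-beta-lactamase enzyme inhibition, read out by epi-absorbance; purified recombinant IMP-1 metallo-beta-lactamase with nitrocefin as substrate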
# [12] = test system: Vero; assay: viability loss in Vero cells – cell-based, plate reader, cherry-pick samples, cytotoxicity control, dose response (AID 687020); type: functional; conditions: Chlorocebus sabaeus
# [13] = target: T3, Tyrosine-protein phosphatase non-receptor type 22 (Homo sapiens, UniProt Q9Y2R2); assay: lymphoid phosphatase LYP inhibitors – biochemical, selectivity assay for STEP inhibitor project, dose response (AID 624241); type: functional
# T3 sequence (Q9Y2R2 whole entry): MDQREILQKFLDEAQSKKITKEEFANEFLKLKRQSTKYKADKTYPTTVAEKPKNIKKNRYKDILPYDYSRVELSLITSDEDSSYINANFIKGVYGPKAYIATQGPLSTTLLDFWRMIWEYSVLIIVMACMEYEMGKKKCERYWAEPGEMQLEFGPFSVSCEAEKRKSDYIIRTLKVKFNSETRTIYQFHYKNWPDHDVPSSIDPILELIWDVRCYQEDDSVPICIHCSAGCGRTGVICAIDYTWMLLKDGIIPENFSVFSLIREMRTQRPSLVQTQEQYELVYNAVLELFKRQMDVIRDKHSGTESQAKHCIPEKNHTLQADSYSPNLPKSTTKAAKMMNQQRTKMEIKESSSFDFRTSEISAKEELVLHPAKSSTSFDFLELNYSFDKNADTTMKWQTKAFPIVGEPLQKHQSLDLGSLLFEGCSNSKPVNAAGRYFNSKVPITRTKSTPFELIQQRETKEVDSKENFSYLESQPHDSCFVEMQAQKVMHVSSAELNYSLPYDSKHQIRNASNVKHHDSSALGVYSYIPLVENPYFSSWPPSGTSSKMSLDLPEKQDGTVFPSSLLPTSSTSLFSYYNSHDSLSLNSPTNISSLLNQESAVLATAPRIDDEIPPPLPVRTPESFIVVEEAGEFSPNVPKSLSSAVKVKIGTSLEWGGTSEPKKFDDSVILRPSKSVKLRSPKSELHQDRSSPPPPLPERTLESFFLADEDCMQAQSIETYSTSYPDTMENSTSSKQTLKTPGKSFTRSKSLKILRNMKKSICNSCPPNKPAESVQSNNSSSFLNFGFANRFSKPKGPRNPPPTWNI
# [14] = Luminescence Cell-Based Dose Confirmation HTS to Identify Activators of 5'UTR Stem-Loop Driven Alpha-Synuclein mRNA Translation in H4 Neuroglioblastoma Cells. [Related pubchem assays: 1829 (Project Summary), 1814 (Primary HTS)]; type: functional
# [15] = Luminescence Cell-Based Dose Response HTS to Identify Activators of Luciferase Translation or Activity in H4 […] Cells. [Related pubchem assays: 1829 (Project Summary), 1814 (Primary HTS)]; type: functional
# [16] = target: T4, Carboxy-terminal domain RNA polymerase II polypeptide A small phosphatase 1 (Homo sapiens, UniProt Q9GZU7); assay: CTDSP1 inhibitors, concentration-response, biochemical, absorbance readout, ultra-high-throughput screen actives (AID 540297); type: functional
# T4 sequence (Q9GZU7 whole entry): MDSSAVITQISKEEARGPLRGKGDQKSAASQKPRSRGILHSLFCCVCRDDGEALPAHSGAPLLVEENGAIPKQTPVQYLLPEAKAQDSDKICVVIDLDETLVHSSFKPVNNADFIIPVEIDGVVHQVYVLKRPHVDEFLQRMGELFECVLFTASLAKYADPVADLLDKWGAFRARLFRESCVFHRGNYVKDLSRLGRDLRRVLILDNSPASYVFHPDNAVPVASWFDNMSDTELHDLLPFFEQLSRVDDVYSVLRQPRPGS
# [17] = target: T5, Tyrosine-protein phosphatase non-receptor type 5 (Homo sapiens, UniProt P54829); assay: PTPN5 enzyme inhibition – biochemical, fluorescence intensity, uHTS hits, confirmation (AID 602372); type: functional; conditions: read-out: IC50_Mean
# T5 sequence (P54829 whole entry): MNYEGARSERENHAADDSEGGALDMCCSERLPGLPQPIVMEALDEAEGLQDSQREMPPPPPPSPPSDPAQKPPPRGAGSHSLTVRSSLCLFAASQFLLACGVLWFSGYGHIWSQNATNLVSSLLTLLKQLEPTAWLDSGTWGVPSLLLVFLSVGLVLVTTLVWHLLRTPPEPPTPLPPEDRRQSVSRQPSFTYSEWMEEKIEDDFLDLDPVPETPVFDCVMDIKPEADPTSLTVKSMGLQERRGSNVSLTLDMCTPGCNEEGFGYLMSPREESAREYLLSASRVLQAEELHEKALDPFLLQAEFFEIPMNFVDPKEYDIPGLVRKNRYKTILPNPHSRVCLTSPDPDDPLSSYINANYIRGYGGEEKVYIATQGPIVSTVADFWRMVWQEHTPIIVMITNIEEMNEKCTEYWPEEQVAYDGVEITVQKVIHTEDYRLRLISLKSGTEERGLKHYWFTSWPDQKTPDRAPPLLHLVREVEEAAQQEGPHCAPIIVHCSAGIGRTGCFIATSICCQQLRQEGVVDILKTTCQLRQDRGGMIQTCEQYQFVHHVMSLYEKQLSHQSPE
# [18] = test system: H4; assay: Luminescence Cell-Based Dose Response HTS to Identify Activators of 5'UTR Stem-Loop Driven Prion Protein mRNA Translation in H4 Neuroglioblastoma Cells. [Related pubchem assays: 1829 (Project Summary), 1814 (Primary HTS)]; type: functional; conditions: Homo sapiens
# [19] = target: T6, Tyrosine-protein phosphatase non-receptor type 11 (Homo sapiens, UniProt Q06124); assay: PTPN11 enzyme inhibitors – biochemical, selectivity assay for STEP inhibitor project, dose response (AID 602367); type: functional; conditions: read-out: IC50_Mean
# T6 sequence (Q06124 whole entry): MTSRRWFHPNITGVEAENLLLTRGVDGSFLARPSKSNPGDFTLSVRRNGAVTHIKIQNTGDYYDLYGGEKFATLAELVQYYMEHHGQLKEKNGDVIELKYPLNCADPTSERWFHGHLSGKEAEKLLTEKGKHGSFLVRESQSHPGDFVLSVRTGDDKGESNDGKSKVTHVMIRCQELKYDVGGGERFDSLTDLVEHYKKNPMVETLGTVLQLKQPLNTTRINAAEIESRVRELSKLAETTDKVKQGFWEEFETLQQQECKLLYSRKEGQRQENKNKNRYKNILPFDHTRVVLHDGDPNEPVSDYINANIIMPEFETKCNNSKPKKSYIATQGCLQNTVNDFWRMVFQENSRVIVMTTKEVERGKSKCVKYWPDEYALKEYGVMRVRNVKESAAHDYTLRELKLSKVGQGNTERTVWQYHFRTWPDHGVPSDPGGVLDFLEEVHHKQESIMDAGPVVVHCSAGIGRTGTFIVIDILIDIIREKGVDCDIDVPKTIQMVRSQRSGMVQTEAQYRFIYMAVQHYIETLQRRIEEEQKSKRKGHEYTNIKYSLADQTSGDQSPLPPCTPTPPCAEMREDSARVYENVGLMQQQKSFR
# [20] = target: Dual specificity protein phosphatase 3 (Homo sapiens, UniProt P51452); assay: VHR phosphatase inhibition, dose response, selectivity assay for STEP inhibitor project, biochemical (AID 602374); type: functional; conditions: read-out: IC50_Mean
# [21] = target: T7, Low molecular weight phosphotyrosine protein phosphatase (Homo sapiens, UniProt P24666); type: functional; conditions: read-out: IC50_Mean
# T7 sequence (P24666 whole entry): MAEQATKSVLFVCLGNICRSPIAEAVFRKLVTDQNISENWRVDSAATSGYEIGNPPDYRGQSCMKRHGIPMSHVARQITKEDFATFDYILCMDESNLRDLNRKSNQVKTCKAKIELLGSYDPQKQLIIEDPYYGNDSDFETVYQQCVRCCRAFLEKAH
# [22] = non-specific 3'UTR reporter inhibition in Clone20-Shn3RL – cell-based, Renilla luciferase, cherry-picked, counter-screen for Shn3 inhibitor project, dose response (AID 624133); type: functional
# [23] = loss of viability in HepG2 cells – cell-based, CellTiter-Glo, cherry-picked, cytotoxicity control for Shn3 inhibitor project, dose response (AID 624134); type: functional
# [24] = target: T7, Low molecular weight phosphotyrosine protein phosphatase; type: functional; conditions: read-out: IC50_Mean; remark: listed apart in the source
# [25] = reduction of Shn3 3'UTR-driven luciferase in osteoblasts – cell-based, Clone20 osteoblasts, firefly luciferase, cherry-picked, dose response (AID 624132); type: functional;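 further: firefly luciferase luminescence from reporter carrying the Shn3 3'UTR in osteoblasts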
# [26] = target: T3, Tyrosine-protein phosphatase non-receptor type 22; assay: PTPN22 enzyme inhibitors – biochemical, fluorescence, LYP catalytic domain, selectivity assay for LMPTP inhibitor project, dose response (AID 652006); type: functional; conditions: read-out: IC50_Mean
# [27] = target: T8, Palmitoyl-protein thioesterase ABHD10, mitochondrial (Mus musculus, UniProt Q6PE15); assay: Late stage assay provider results from the probe development effort to identify inhibitors of PME-1: fluorescence-based dose response biochemical gel-based competitive Activity-Based Protein Profiling (ABPP) inhibition of ABHD10 Set 1.; type: functional
# [28] = target: T8, Palmitoyl-protein thioesterase ABHD10, mitochondrial; assay: Late stage assay provider results from the probe development effort to identify inhibitors of PME-1: fluorescence-based dose response cell-based gel-based competitive Activity-Based Protein Profiling (ABPP) inhibition of ABHD10.; type: functional
# T8 sequence (Q6PE15 whole entry): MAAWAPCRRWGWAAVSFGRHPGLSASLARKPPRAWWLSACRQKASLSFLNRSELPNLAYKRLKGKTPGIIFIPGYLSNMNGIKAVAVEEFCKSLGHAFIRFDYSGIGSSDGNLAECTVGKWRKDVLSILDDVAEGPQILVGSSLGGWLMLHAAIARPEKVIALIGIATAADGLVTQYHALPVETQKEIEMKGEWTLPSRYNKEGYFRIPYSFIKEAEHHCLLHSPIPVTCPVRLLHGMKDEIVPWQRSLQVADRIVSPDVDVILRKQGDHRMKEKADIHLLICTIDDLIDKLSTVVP
# Arf-GAP with SH3 domain, ANK repeat and PH domain-containing protein 1, sequence (Q9ULH1 whole entry, the tested form may be a part): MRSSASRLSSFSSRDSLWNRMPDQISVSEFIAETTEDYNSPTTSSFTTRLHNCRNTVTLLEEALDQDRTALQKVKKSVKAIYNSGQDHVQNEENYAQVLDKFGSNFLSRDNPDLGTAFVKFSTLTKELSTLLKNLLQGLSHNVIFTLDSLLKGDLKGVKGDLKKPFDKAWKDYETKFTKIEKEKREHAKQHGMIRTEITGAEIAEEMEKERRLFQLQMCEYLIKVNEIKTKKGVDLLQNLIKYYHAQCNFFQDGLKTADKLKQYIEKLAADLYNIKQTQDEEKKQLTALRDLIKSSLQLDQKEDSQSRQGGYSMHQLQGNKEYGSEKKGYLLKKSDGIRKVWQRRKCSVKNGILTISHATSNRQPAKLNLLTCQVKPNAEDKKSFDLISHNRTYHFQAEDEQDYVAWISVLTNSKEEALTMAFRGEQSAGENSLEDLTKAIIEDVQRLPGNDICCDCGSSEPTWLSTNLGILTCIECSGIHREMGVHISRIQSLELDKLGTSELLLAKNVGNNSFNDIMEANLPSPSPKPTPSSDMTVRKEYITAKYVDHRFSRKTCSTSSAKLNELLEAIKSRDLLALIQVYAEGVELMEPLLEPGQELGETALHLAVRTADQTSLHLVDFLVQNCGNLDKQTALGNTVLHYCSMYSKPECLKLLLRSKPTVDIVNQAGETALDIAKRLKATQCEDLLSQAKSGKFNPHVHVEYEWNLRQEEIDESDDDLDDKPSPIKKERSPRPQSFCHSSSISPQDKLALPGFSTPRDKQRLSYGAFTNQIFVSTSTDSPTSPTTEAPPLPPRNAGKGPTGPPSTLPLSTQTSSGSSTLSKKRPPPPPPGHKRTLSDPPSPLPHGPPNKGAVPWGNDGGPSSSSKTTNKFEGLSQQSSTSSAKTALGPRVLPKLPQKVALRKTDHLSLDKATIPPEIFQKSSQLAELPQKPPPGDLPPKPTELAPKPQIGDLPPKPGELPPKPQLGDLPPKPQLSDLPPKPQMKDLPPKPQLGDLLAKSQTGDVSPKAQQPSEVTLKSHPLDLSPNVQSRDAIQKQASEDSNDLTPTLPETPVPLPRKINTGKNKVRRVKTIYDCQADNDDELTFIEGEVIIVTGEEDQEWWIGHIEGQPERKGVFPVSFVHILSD
# Dual specificity protein phosphatase 3, sequence (P51452 whole entry): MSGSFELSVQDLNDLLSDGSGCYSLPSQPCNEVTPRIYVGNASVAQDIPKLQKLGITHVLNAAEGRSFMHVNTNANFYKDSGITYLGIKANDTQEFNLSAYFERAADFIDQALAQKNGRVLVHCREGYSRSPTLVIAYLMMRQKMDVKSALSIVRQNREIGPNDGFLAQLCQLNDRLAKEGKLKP
# Beta-lactamase (Salmonella choleraesuis (strain SC-B67), UniProt Q5J463), sequence (Q5J463 whole entry): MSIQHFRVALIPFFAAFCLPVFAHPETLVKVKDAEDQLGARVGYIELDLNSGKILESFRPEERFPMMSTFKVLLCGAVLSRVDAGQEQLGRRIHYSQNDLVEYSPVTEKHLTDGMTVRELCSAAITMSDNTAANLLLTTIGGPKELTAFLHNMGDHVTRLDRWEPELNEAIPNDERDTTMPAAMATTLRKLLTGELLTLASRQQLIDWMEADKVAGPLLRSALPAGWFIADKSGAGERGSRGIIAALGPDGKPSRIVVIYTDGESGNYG
# ADP-ribosylation factor GTPase-activating protein 1, sequence (Q62848 whole entry, the tested form may be a part): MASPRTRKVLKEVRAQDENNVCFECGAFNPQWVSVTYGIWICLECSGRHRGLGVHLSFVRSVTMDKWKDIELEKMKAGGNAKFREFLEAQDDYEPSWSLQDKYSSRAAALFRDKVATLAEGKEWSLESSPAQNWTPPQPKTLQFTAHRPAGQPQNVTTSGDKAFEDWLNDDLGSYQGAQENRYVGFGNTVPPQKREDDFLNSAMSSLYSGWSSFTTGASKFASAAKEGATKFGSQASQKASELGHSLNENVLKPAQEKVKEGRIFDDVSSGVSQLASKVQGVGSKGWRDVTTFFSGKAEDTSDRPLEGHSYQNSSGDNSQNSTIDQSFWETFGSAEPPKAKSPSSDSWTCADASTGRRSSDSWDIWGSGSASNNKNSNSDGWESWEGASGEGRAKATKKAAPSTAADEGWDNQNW
# Beta-lactamase (Pseudomonas aeruginosa, UniProt Q79MP6), sequence (Q79MP6 whole entry): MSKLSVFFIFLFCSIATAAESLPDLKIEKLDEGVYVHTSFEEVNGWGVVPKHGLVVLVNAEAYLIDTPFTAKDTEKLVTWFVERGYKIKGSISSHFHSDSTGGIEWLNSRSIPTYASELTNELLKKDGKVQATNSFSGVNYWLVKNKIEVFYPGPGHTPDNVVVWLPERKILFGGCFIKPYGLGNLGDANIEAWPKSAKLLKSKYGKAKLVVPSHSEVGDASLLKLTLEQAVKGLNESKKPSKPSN
# Botulinum neurotoxin type F, sequence (P30996 1-436 limits assumed): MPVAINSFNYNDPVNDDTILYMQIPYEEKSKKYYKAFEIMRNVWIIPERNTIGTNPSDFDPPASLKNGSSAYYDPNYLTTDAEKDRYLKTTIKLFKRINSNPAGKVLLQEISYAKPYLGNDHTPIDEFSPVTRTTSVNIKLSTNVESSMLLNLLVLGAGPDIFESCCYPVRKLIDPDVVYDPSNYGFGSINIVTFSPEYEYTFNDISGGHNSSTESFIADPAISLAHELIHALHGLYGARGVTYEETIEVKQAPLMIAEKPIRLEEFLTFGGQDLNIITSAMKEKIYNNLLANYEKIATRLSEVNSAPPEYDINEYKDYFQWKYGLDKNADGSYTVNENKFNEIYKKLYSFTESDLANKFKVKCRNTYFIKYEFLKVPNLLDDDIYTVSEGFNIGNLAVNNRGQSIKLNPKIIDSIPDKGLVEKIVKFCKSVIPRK
# Lethal factor, sequence (P15917 whole entry): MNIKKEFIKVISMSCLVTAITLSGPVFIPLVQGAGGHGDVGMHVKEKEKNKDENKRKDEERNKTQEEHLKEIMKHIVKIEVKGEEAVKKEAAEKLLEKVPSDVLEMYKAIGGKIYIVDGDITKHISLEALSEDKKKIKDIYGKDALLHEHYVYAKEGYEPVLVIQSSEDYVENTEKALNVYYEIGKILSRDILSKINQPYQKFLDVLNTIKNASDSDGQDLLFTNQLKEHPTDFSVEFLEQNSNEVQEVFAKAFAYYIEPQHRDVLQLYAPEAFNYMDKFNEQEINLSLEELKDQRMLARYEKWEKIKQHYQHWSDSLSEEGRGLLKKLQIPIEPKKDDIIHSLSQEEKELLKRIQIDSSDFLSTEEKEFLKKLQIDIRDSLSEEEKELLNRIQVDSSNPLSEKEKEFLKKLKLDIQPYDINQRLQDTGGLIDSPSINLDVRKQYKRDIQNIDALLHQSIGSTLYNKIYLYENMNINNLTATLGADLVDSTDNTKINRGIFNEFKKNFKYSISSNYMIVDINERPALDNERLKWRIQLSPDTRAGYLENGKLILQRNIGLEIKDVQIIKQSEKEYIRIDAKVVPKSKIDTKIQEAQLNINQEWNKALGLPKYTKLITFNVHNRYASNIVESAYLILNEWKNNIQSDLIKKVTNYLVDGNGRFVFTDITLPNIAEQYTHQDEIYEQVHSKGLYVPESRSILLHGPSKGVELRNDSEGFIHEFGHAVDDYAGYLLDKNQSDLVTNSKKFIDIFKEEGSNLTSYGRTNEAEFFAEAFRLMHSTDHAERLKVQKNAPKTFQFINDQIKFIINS
# Mu-type opioid receptor, sequence (P35372 whole entry): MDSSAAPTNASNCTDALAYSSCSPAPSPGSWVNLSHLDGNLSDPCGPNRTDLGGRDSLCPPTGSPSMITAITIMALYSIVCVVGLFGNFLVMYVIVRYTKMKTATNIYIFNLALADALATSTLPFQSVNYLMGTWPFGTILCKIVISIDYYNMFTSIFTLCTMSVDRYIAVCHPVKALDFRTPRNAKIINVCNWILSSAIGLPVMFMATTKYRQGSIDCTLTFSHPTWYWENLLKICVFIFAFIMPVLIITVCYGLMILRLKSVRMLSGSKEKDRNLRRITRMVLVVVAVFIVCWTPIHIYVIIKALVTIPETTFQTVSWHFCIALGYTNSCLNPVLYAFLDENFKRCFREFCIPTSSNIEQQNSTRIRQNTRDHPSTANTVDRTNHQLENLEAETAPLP
# 5-hydroxytryptamine receptor 2A, sequence (P35363 whole entry): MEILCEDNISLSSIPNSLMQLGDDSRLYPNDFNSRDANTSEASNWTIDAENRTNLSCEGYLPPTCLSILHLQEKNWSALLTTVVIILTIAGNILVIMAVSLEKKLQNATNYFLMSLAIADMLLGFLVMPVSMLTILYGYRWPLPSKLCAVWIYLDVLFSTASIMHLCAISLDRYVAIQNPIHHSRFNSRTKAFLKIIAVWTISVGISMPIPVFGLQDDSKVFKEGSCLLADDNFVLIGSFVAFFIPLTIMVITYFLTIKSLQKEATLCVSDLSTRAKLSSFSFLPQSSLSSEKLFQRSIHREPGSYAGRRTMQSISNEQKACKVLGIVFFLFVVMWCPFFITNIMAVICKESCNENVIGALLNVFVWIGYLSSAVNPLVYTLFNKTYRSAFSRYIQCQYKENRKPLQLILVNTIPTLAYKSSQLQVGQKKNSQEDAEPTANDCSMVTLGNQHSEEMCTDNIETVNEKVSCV
smiles,measurement,setting,value
O=[N+]([O-])c1cccc(CN2CCN(c3ncccn3)CC2)c1,EC50,[1],22.3 µM (inactive)
same,EC50,[2],92.5 µM (inactive)
Cc1ccc(OCc2ccc(C(=O)Nc3ccc(C(N)=O)cc3)o2)c([N+](=O)[O-])c1,IC50,[3],16.7 µM (inactive)
same,IC50,[4],14 µM (inactive)
Cc1cc2ccccc2n1CCNC(=O)C(C)C,EC50,[5],> 20 µM (inactive)
same,IC50,[6],94.3 µM (inactive)
same,EC50,[7],> 195 µM (not active)
same,EC50,[8],19.5 µM (active)
CCN(CC)c1ccc2cc(C(=O)NCc3ccc(F)cc3)c(=N)oc2c1,IC50,[9],2.12 µM (active)
same,IC50,[10],28.1 µM (inactive)
same,IC50,[11],> 59.6 µM (inactive)
O=C(Nc1ccccc1C(F)(F)F)C(O)(c1ccccc1)C1CCCCC1 (stereo not drawn),AC50,[12],36.8 µM (active)
N#C/C(=C\c1ccc(OC(=O)c2ccc(Cl)s2)cc1)c1nc2ccccc2[nH]1,IC50,[13],22.9 µM (inactive)
same,EC50,[14],13.1 µM (active)
same,EC50,[15],19.1 µM (active)
same,IC50,[16],1.77 µM (active)
same,IC50,[17],16.9 µM (active)
same,EC50,[18],71.4 µM (active)
same,IC50,[19],1.29 µM (active)
same,IC50,[20],2.49 µM (active)
COc1cccc(CNc2nc(NCC3CC3)nc3ccsc23)c1OC,IC50,[21],12.3 µM (active)
same,AC50,[22],23.6 µM (active)
same,AC50,[23],34 µM (active)
same,IC50,[24],11.5 µM (active)
same,AC50,[25],4.48 µM (active)
same,IC50,[26],33.3 µM (inactive)
CC[C@@]1(c2ccc(C)cc2)C(=O)N(C(=O)OC(C)C)N1C(=O)OC(C)C,IC50,[27],0.017 µM (active)
same,IC50,[28],0.028 µM (active)
